biological target: T1, SHP2 enzyme (catalytic domain, amino acid sequence 224-528) (Homo sapiens, UniProt Q06124); assay: SHP2 enzyme inhibition assay (DiFMUP substrate, fluorescence); type: biochemical; settings: SHP2 catalytic domain, DiFMUP substrate, 30 min pre-incubation; read-out: S HP2 I C50
T1 construct: purchased GenScript
T1 sequence (Q06124 224-528): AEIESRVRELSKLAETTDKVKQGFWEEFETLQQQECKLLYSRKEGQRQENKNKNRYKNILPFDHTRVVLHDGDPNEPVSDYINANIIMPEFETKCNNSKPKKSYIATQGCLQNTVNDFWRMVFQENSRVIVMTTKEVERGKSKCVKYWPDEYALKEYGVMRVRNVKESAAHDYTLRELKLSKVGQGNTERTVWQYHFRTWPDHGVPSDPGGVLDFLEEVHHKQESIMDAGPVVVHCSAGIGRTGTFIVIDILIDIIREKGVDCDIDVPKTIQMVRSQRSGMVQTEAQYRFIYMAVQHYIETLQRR
Method: This experiment evaluates the inhibitory effect of the test compounds on SHP2 enzyme activity by detecting the reaction between the human recombinant protein SHP2 enzyme and the substrate.
The stock solutions of the reaction buffer components were thawed and mixed homogeneously at room temperature, to prepare the reaction buffer (55 mM HEPES pH = 7.2 (Sigma, Cat. No. #PHR1428), 100 mM NaCl (Beyotime, Cat. No. #ST374, 5 M solution), 0.5 mM EDTA (Beyotime, Cat. No. #ST066), 1 mM DL-Dithiothreitol (DTT) (Sigma, Cat. No. #D9779), 0.002% BSA (Solarbio, Cat. No. #A8010), 0.001% Brij35 (Brij® L23 solution (Brij35) (Sigma, Cat. No. #B4184)). The SHP2 enzyme (catalytic domain, amino acid sequence 224-528, expressed and purified by GenScript) was thawed slowly on ice. 1 µL of this solution (1.37 mg/mL) was added to 386 µL of the reaction buffer to dilute it to 100 nM. Then, 120 µL of the 100 nM SHP2 enzyme solution was added to 2880 µL of reaction buffer to prepare a 4 nM SHP2 enzyme working solution. The test compounds and the specific inhibitor of SHP2 (11a-1, used as a positive control, Zeng, L. et al., J. Med. Chem. 2014, 57, 6594-6609) were prepared as 10 mM DMSO solutions. 10 µL of the 10 mM compound solution was mixed with 20 µL of DMSO solution, and then serially diluted 3-fold, resulting in 10 concentrations. 1 µL of the serially diluted solution was mixed with 99 µL of reaction buffer to obtain a 10-fold diluted compound working solution.
A 96-well black half-area microplate (Greiner, catalog #675076) was used. 25 µL of 4 nM SHP2 enzyme working solution and 5 µL of 10x compound working solution were added to each well and incubated at room temperature for 30 minutes. 15 µL of DiFMUP substrate (Thermo Fisher Scientific, catalog #D6567) was added to 2985 µL of reaction buffer to prepare a 50 µM substrate working solution. After incubation of the compounds and SHP2 enzyme, 20 µL of the 50 µM substrate working solution was added to each well and incubated at room temperature for 5 minutes. The plate was then read on a multi-mode microplate reader (BioTek, Synergy H1) at 340 nm/450 nm fluorescence.
Data were analyzed using GraphPad Prism 9.0 software. A non-linear S-curve regression dose-response-inhibition equation was used to fit the data and generate the dose-response curve, from which the IC50 value was calculated. [formula]

| SMILES | IC50 [nM] |
| --- | --- |
| CC1(n2c(-c3ccc(NC(=O)C(=O)Nc4ccc(N5CCC6(CCC(CO)CC6)CC5)cc4)cc3)cc3cc(F)c(-c4nnn[nH]4)cc32)CCC1 [Example 113] | 114 |
| O=C(Nc1ccc(-c2cc3cc(F)c(-c4nnn[nH]4)cc3n2C2CCC2)cc1)C(=O)Nc1ccc(N2CCC(C(O)C(F)(F)F)CC2)cc1 (stereo not shown) [Example 32] | 61 |
| CC(C)(O)C1CC2(CCN(c3ccc(NC(=O)C(=O)Nc4ccc(-c5cc6cc(F)c(-c7nnn[nH]7)cc6n5C5(C)CCC5)cc4)cc3)CC2)C1 [Example 99] | 77 |
| O=C(Nc1ccc(-c2cc3cc(F)c(-c4nnn[nH]4)cc3n2C2CCC2)cc1)C(=O)Nc1ccc(N2CCC(F)(CO)C2)cc1 (stereo not shown) [Example 17] | 120 |
| O=C(Nc1ccc(-c2cc3cc(F)c(-c4nnn[nH]4)cc3n2C2CCC2)cc1)C(=O)Nc1ccc(N2CCC3(CCC(CO)C3)CC2)cc1 (stereo not shown) [Example 106] | 103 |
| CC1(n2c(-c3ccc(NC(=O)C(=O)Nc4ccc(N5CC6CC(CO)CC6C5)cc4)cc3)cc3cc(F)c(-c4nnn[nH]4)cc32)CCC1 (stereo not shown) [Example 120] | 55 |
| CC1(O)CCC2(CCN(c3ccc(NC(=O)C(=O)Nc4ccc(-c5cc6cc(F)c(-c7nnn[nH]7)cc6n5C5CCC5)cc4)cc3)CC2)C1 (stereo not shown) [Example 104] | 70 |
| C[C@@H](O)C1CCN(c2ccc(NC(=O)C(=O)Nc3ccc(-c4cc5cc(F)c(-c6nnn[nH]6)cc5n4C4(C)CCC4)cc3)cc2)CC1 [Example 30] | 86 |
| CC1(n2c(-c3ccc(NC(=O)C(=O)Nc4ccc(N5CCC6(CCCOC6)CC5)cc4)cc3)cc3cc(F)c(-c4nnn[nH]4)cc32)CCC1 [Example 75] | 34 |
| CC1(n2c(-c3ccc(NC(=O)C(=O)Nc4ccc(N5CC[C@H](CO)C5)cc4)cc3)cc3cc(F)c(-c4nnn[nH]4)cc32)CCC1 [Example 13] | 66 |
| CC(C)(O)CC1CCN(c2ccc(NC(=O)C(=O)Nc3ccc(-c4cc5cc(F)c(-c6nnn[nH]6)cc5n4C4CCC4)cc3)cc2)CC1 [Example 27] | 111 |
| CC(C)(O)C1CCC2(CC1)CN(c1ccc(NC(=O)C(=O)Nc3ccc(-c4cc5cc(F)c(-c6nnn[nH]6)cc5n4C4(C)CCC4)cc3)cc1)C2 [Example 88] | 148 |
| CCC1CN(c2ccc(NC(=O)C(=O)Nc3ccc(-c4cc5cc(F)c(-c6nnn[nH]6)cc5n4C4CCC4)cc3)cc2)CCO1 (stereo not shown) [Example 48] | 50 |
| O=C(Nc1ccc(-c2cc3cc(F)c(-c4nnn[nH]4)cc3n2C2CCC2)cc1)C(=O)Nc1ccc(N2CCC(F)(CO)CC2)cc1 [Example 45] | 55 |
| O=C(Nc1ccc(-c2cc3cc(F)c(-c4nnn[nH]4)cc3n2C2CCC2)cc1)C(=O)Nc1ccc(N2CC3(CCOC3)C2)cc1 [Example 54] | 69 |
| O=C(Nc1ccc(N2CCC3(CCOC3)CC2)cc1)C(=O)NC1CCN(c2cc3cc(F)c(-c4nnn[nH]4)cc3n2C2CCC2)CC1 [Example 66] | 291 |
| CC1(O)CCC2(CCN(c3ccc(NC(=O)C(=O)Nc4ccc(-c5cc6cc(F)c(-c7nnn[nH]7)cc6n5C5(C)CCC5)cc4)cc3)CC2)C1 (stereo not shown) [Example 105] | 86 |
| O=C(Nc1ccc(-c2cc3cc(F)c(-c4nnn[nH]4)cc3n2C2CCC2)cc1)C(=O)Nc1ccc(N2CCC3(CCC(CO)CC3)CC2)cc1 [Example 112] | 105 |
| O=C(Nc1ccc(-c2cc3cc(F)c(-c4nnn[nH]4)cc3n2C2CCC2)cc1)C(=O)Nc1ccc(N2CC3(C2)CC(O)(C(F)(F)F)C3)cc1 [Example 78] | 74 |
| CC1(O)CCC2(CC1)CN(c1ccc(NC(=O)C(=O)Nc3ccc(-c4cc5cc(F)c(-c6nnn[nH]6)cc5n4C4(C)CCC4)cc3)cc1)C2 [Example 84] | 60 |
| O=C(Nc1ccc(-c2cc3cc(F)c(-c4nnn[nH]4)cc3n2C2CCC2)cc1)C(=O)Nc1ccc(N2CCC3(CCCO3)C2)cc1 (stereo not shown) [Example 60] | 64 |
| O=C(Nc1ccc(C2=CCOCC2)cc1)C(=O)Nc1ccc(-c2cc3cc(F)c(-c4nnn[nH]4)cc3n2C2CCC2)cc1 [Example 52] | 102 |
| CC1(n2c(-c3ccc(NC(=O)C(=O)Nc4ccc(N5CCC(C6COC6)CC5)cc4)cc3)cc3cc(F)c(-c4nnn[nH]4)cc32)CCC1 [Example 21] | 68 |
| O=C(Nc1ccc(-c2ccsc2)cc1)C(=O)Nc1ccc(-c2cc3cc(O)c(-c4nnn[nH]4)cc3n2C2CCC2)cc1 [Example 3] | 278 |
| O=C(Nc1ccc(-c2ccsc2)cc1)C(=O)Nc1ccc(-c2cc3ccc(-c4cnn[nH]4)cc3n2C2CCC2)cc1 [Example 121] | > 10000 |

same assay, conditions: relative to 11a-1, IC50 = 0.108 µM

| SMILES | SHP2 IC50 times lower than control compound 11a-1 |
| --- | --- |
| CC1(n2c(-c3ccc(NC(=O)C(=O)Nc4ccc(N5CCC6(CCCOC6)CC5)cc4)cc3)cc3cc(F)c(-c4nnn[nH]4)cc32)CCC1 [Example 75] | 3-4 times |

system: KYSE520; assay: CellTiter-Glo cell proliferation inhibition, KYSE520; type: cell-based, human; settings: Homo sapiens, KYSE-520; KYSE520 cells, 120 hours, CellTiter-Glo
Description: In this study, the CellTiter-Glo® Luminescent Cell Viability Assay kit from Promega was used to evaluate the inhibitory effects of the disclosed compounds on the proliferation of cell lines KYSE520 (a human esophageal squamous cell carcinoma cell line dependent on SHP2 for growth), MeWo (a human malignant melanoma cell line), and MV4-11 (an RTK-mutant human acute monocytic leukemia cell line).
KYSE520 cells (Nanjing Kebaio Biotechnology Co., Ltd., Catalog #CBP60658) were thawed by rapidly shaking the cryovial in a 37 °C water bath to thaw within 1 minute. The thawed cell suspension was mixed homogeneously with RPMI 1640 medium (HyClone, Catalog #SH30027.01) containing 10% FBS (ExCell, Catalog #FND500), centrifuged at 1000 rpm for 5 minutes, and the supernatant was discarded. The cell pellet was resuspended in 5 mL of complete culture medium (RPMI 1640 medium containing 10% FBS) and placed in a cell culture flask with 25 cm^2 of bottom area, then cultured in a cell culture incubator at 37 °C, 95% humidity, and 5% CO2. Cell passaging was performed when the cell confluence reached approximately 80%. During cell passaging, the old culture medium was discarded, the cells were washed once with DPBS (Thermo Fisher, Catalog #14190-144), and 1 mL of trypsin (Thermo Fisher, Catalog #25200072) was added to digest the cells. When the cells dispersed into single cells and detached from the bottom of the culture flask, 3 mL of fresh complete culture medium was added to stop the digestion. After gently pipetting the cell suspension, 1/5 of the cell suspension was retained, 5 mL of fresh complete culture medium was added, and after mixing, the cells were placed in a cell culture flask for further culture. Cell plating was performed when the cell confluence again reached approximately 80%. During cell plating, following the cell passaging method, 1/5 of the cell suspension was retained for continued culture, and the remaining 4/5 of the cell suspension was placed in a 15 mL centrifuge tube. Cell viability was determined using the trypan blue exclusion method to ensure that cell viability was above 90%. A cell suspension with a density of 2.22 × 10^4 cells/mL was prepared using complete culture medium, and 135 µL of the cell suspension was added to a 96-well transparent flat-bottom black-walled cell culture plate (Greiner, Catalog #655090), resulting in a cell density of 3000 viable cells per well. A control group containing only complete culture medium without cells and compounds (i.e., culture medium control) and a control group containing cells but no compound (i.e., cell control) were set up. The cell plates were incubated overnight in a cell culture incubator. First, a 10 mM stock solution of the compound (Example compound and positive control compound 11a-1) in DMSO (Damas-beta, catalog #75927R) was serially diluted 3-fold to the 9th concentration, and a 10th concentration containing only DMSO (without compound) was also prepared as a control. Then, the DMSO solutions containing different concentrations of the compound were diluted 100-fold with complete culture medium, resulting in a 1% DMSO concentration in each solution. Finally, 15 µL of each solution was added to the corresponding wells of the cell culture plate, resulting in a starting compound concentration of 10 µM, with a 3-fold dilution between adjacent concentrations, and a final DMSO concentration of 0.1% in the cell culture plate. The cell plates were then incubated in the cell culture incubator for another 120 hours.
For endpoint detection, CellTiter-Glo reagent (Promega, catalog number #G7573, CellTiter-Glo® Luminescent Cell Viability Assay Kit) was melt and each cell plate was moved to room temperature for equilibration for 30 minutes. 75 µL (KYSE520 cells) or 50 µL (MeWo cells and MV 4-11 cells) of CellTiter-Glo was added to each well of the corresponding cell plate. The plates were shaken on a track-mounted shaker for 2 minutes to fully lyse the cells. […]

| SMILES | IC50 [µM] |
| --- | --- |
| CC1(n2c(-c3ccc(NC(=O)C(=O)Nc4ccc(N5CCC6(CCC(CO)CC6)CC5)cc4)cc3)cc3cc(F)c(-c4nnn[nH]4)cc32)CCC1 [Example 113] | 0.116 |
| O=C(Nc1ccc(-c2cc3cc(F)c(-c4nnn[nH]4)cc3n2C2CCC2)cc1)C(=O)Nc1ccc(N2CCC(C(O)C(F)(F)F)CC2)cc1 (stereo not shown) [Example 32] | 0.182 |
| CC(C)(O)C1CC2(CCN(c3ccc(NC(=O)C(=O)Nc4ccc(-c5cc6cc(F)c(-c7nnn[nH]7)cc6n5C5(C)CCC5)cc4)cc3)CC2)C1 [Example 99] | 0.17 |
| O=C(Nc1ccc(-c2cc3cc(F)c(-c4nnn[nH]4)cc3n2C2CCC2)cc1)C(=O)Nc1ccc(N2CCC(F)(CO)C2)cc1 (stereo not shown) [Example 17] | 0.185 |
| O=C(Nc1ccc(-c2cc3cc(F)c(-c4nnn[nH]4)cc3n2C2CCC2)cc1)C(=O)Nc1ccc(N2CCC3(CCC(CO)C3)CC2)cc1 (stereo not shown) [Example 106] | 0.11 |
| CC1(n2c(-c3ccc(NC(=O)C(=O)Nc4ccc(N5CC6CC(CO)CC6C5)cc4)cc3)cc3cc(F)c(-c4nnn[nH]4)cc32)CCC1 (stereo not shown) [Example 120] | 0.115 |
| CC1(O)CCC2(CCN(c3ccc(NC(=O)C(=O)Nc4ccc(-c5cc6cc(F)c(-c7nnn[nH]7)cc6n5C5CCC5)cc4)cc3)CC2)C1 (stereo not shown) [Example 104] | 0.125 |
| C[C@@H](O)C1CCN(c2ccc(NC(=O)C(=O)Nc3ccc(-c4cc5cc(F)c(-c6nnn[nH]6)cc5n4C4(C)CCC4)cc3)cc2)CC1 [Example 30] | 0.192 |
| CC1(n2c(-c3ccc(NC(=O)C(=O)Nc4ccc(N5CCC6(CCCOC6)CC5)cc4)cc3)cc3cc(F)c(-c4nnn[nH]4)cc32)CCC1 [Example 75] | 0.103 |
| CC1(n2c(-c3ccc(NC(=O)C(=O)Nc4ccc(N5CC[C@H](CO)C5)cc4)cc3)cc3cc(F)c(-c4nnn[nH]4)cc32)CCC1 [Example 13] | 0.182 |
| CC(C)(O)CC1CCN(c2ccc(NC(=O)C(=O)Nc3ccc(-c4cc5cc(F)c(-c6nnn[nH]6)cc5n4C4CCC4)cc3)cc2)CC1 [Example 27] | 0.17 |
